# Experimental data as given in PubChem BioAssay AID330 (DTP/NCI, 2004).
# Values joined by “and” are separate entries in the source; they are usually repeats but may differ in a detail not shown here. Identical values can stand only once. Toxic doses and inconclusive results are not listed.
# System: P388 leukemia ip, CD2F1 mice, survival T/C
# Experiment: NCI In Vivo Anticancer Drug Screen. Data for tumor model P388 Leukemia (intraperitoneal) in CD2F1 (CDF1) mice
# Settings: endpoint: median survival time, higher = longer survival
# Outline: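 Mice carrying the transplanted tumor received test compound or vehicle. Survival was recorded in each group, and the value is the treated-group measurement divided by that of the vehicle-treated control group.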
# [1] = dose: 25.0 mg/kg/injection, schedule: Q01DX009 (ip), vehicle: Klucel (hydroxypropylcellulose) (HPC)
# [2] = dose: 50.0 mg/kg/injection, schedule: Q01DX005 (ip), vehicle: saline
# [3] = dose: 100.0 mg/kg/injection, schedule: Q01DX005 (ip), vehicle: saline
# [4] = dose: 200.0 mg/kg/injection, schedule: Q01DX005 (ip), vehicle: saline
# [5] = dose: 60.0 mg/kg/injection, schedule: Q01DX005 (ip), vehicle: saline with Tween-80
# [6] = dose: 120.0 mg/kg/injection, schedule: Q01DX005 (ip), vehicle: saline with Tween-80
# [7] = dose: 240.0 mg/kg/injection, schedule: Q01DX005 (ip), vehicle: saline with Tween-80
# [8] = dose: 50.0 mg/kg/injection, schedule: Q01DX005 (ip), vehicle: Klucel (hydroxypropylcellulose) (HPC)
# [9] = dose: 100.0 mg/kg/injection, schedule: Q01DX005 (ip), vehicle: Klucel (hydroxypropylcellulose) (HPC)
# [10] = dose: 200.0 mg/kg/injection, schedule: Q01DX005 (ip), vehicle: Klucel (hydroxypropylcellulose) (HPC)
# [11] = dose: 50.0 mg/kg/injection, schedule: Q01DX009 (ip), vehicle: saline
# [12] = dose: 100.0 mg/kg/injection, schedule: Q01DX009 (ip), vehicle: saline
# [13] = dose: 200.0 mg/kg/injection, schedule: Q01DX009 (ip), vehicle: saline
# [14] = dose: 50.0 mg/kg/injection, schedule: Q01DX005 (ip), vehicle: saline with Tween-80
# [15] = dose: 100.0 mg/kg/injection, schedule: Q01DX005 (ip), vehicle: saline with Tween-80
compound,measurement,setting,value
CCOC(=O)C(CC)Oc1cccc2c1oc1ccccc12 (stereo not given),T/C,[1],103 % of control
same,T/C,"dose: 50.0 mg/kg/injection, schedule: Q01DX009 (ip), vehicle: Klucel (hydroxypropylcellulose) (HPC)",106 % of control
same,T/C,"dose: 100.0 mg/kg/injection, schedule: Q01DX009 (ip), vehicle: Klucel (hydroxypropylcellulose) (HPC)",101 % of control
same,T/C,"dose: 200.0 mg/kg/injection, schedule: Q01DX009 (ip), vehicle: Klucel (hydroxypropylcellulose) (HPC)",109 % of control
c1ccc(Nc2ccc(CN3CCOCC3)cc2)cc1,T/C,"dose: 60.0 mg/kg/injection, schedule: Q01DX005 (ip), vehicle: Klucel (hydroxypropylcellulose) (HPC)",105 % of control
same,T/C,"dose: 120.0 mg/kg/injection, schedule: Q01DX005 (ip), vehicle: Klucel (hydroxypropylcellulose) (HPC)",96 % of control
same,T/C,"dose: 240.0 mg/kg/injection, schedule: Q01DX005 (ip), vehicle: Klucel (hydroxypropylcellulose) (HPC)",88 % of control
COC1C=C(C)C(=O)O1 (stereo not given),T/C,[2],106 % of control
same,T/C,[3],101 % of control
same,T/C,[4],101 % of control
CCCCCCCCN1CSC(=S)N(c2ccc3[nH]c(=S)sc3c2)C1,T/C,"dose: 6.25 mg/kg/injection, schedule: Q01DX009 (ip), vehicle: Klucel (hydroxypropylcellulose) (HPC)",94 % of control
same,T/C,"dose: 12.5 mg/kg/injection, schedule: Q01DX009 (ip), vehicle: Klucel (hydroxypropylcellulose) (HPC)",106 % of control
same,T/C,[1],94 % of control
COC(=O)c1nnn(-c2cccc(Cl)c2)c1C(=O)c1ccc(Cl)c(Cl)c1,T/C,[5],100 % of control
same,T/C,[6],87 % of control
same,T/C,[7],88 % of control
C=CCN(CC=C)C(=O)Nc1cc(OC)ccc1OC,T/C,[5],97 % of control
same,T/C,[6],97 % of control
same,T/C,[7],103 % of control
O=C(O)c1c(Cl)c(Cl)c(Cl)c(Cl)c1C(=O)Nc1ccc2cn[nH]c2c1,T/C,"dose: 50.0 mg/kg/injection, schedule: Q01DX009 (ip), vehicle: saline + alcohol",101 % of control
same,T/C,"dose: 100.0 mg/kg/injection, schedule: Q01DX009 (ip), vehicle: saline + alcohol",100 % of control
COc1cc(-c2nn(CN3CCN(Cn4nc(-c5cc(OC)c(OC)c(OC)c5)oc4=S)CC3)c(=S)o2)cc(OC)c1OC,T/C,[8],97 % of control
same,T/C,[9],87 % of control
same,T/C,[10],93 % of control
Cc1cccc(C(=O)C(CN(C)C)CN(C)C)c1,T/C,"dose: 12.5 mg/kg/injection, schedule: Q01DX005 (ip), vehicle: saline",112 % of control
same,T/C,"dose: 25.0 mg/kg/injection, schedule: Q01DX005 (ip), vehicle: saline",114 % of control
Cc1cn(CCCSCC2OC3OC4C(CO)OC(OC5C(CO)OC(OC6C(CO)OC(OC7C(CO)OC(OC8C(CO)OC(OC9C(CO)OC(OC2C(O)C3O)C(O)C9O)C(O)C8O)C(O)C7O)C(O)C6O)C(O)C5O)C(O)C4O)c(=O)[nH]c1=O (stereo not given),T/C,[2],103 % of control
same,T/C,[3],100 % of control
same,T/C,[4],98 % of control
O=C(O)Cc1ccc(-c2cn3c(n2)sc2ccccc23)cc1,T/C,[11],108 % of control
same,T/C,[12],107 % of control
same,T/C,[13],112 % of control
CCC=Nc1c(O)cc(-c2ccccc2)n(C)c1=O,T/C,[5],94 % of control
same,T/C,[6],100 % of control
CCC1(C2OC(C3OC(O)(CO)C(C)CC3C)CC2C)CCC(C2(C)CCC3(CC(O)C(C)C(C(C)C(OC)C(C)C(=O)O)O3)O2)O1 (stereo not given),T/C,"dose: 3.13 mg/kg/injection, schedule: Q01DX005 (ip), vehicle: saline with Tween-80",110 % of control and 112 % of control
same,T/C,"dose: 6.25 mg/kg/injection, schedule: Q01DX005 (ip), vehicle: saline with Tween-80",108 % of control and 111 % of control and 118 % of control
same,T/C,"dose: 12.5 mg/kg/injection, schedule: Q01DX005 (ip), vehicle: saline with Tween-80",120 % of control
COC(=O)Cc1nc2c(=O)[nH]c(N)nc2[nH]c1=O,T/C,"dose: 12.5 mg/kg/injection, schedule: Q01DX005 (ip), vehicle: Klucel (hydroxypropylcellulose) (HPC)",95 % of control
same,T/C,"dose: 25.0 mg/kg/injection, schedule: Q01DX005 (ip), vehicle: Klucel (hydroxypropylcellulose) (HPC)",96 % of control
same,T/C,[8],102 % of control and 104 % of control
CC(=O)[C@H]1[C@H](O)C[C@H]2[C@@H]3CCC4=CC(=O)CC[C@]4(C)[C@@]3(F)[C@@H](O)C[C@@]21C,T/C,[12],120 % of control
same,T/C,[13],95 % of control
CS(=O)(=O)NCCNS(C)(=O)=O,T/C,"dose: 100.0 mg/kg/injection, schedule: Q04DX003 (ip), vehicle: saline with Tween-80",106 % of control
same,T/C,"dose: 200.0 mg/kg/injection, schedule: Q04DX003 (ip), vehicle: saline with Tween-80",103 % of control
same,T/C,"dose: 400.0 mg/kg/injection, schedule: Q04DX003 (ip), vehicle: saline with Tween-80",103 % of control
O=C1C=CC2C=CC1C=C2,T/C,"dose: 25.0 mg/kg/injection, schedule: Q01DX005 (ip), vehicle: saline with Tween-80",116 % of control
same,T/C,[14],104 % of control
same,T/C,[5],118 % of control
same,T/C,[15],122 % of control
CC1(CCl)Nc2ccccc2C(=O)N1c1ccc(Cl)cc1 (stereo not given),T/C,"dose: 50.0 mg/kg/injection, schedule: Q01DX009 (ip), vehicle: saline with Tween-80",94 % of control
same,T/C,"dose: 100.0 mg/kg/injection, schedule: Q01DX009 (ip), vehicle: saline with Tween-80",95 % of control
same,T/C,"dose: 200.0 mg/kg/injection, schedule: Q01DX009 (ip), vehicle: saline with Tween-80",89 % of control
NC(CC1C(=O)Nc2ccccc21)C(=O)O (stereo not given),T/C,[14],104 % of control
same,T/C,[15],103 % of control
same,T/C,"dose: 200.0 mg/kg/injection, schedule: Q01DX005 (ip), vehicle: saline with Tween-80",103 % of control
N/N=C/c1cccn1-c1ccccc1Cl,T/C,[5],93 % of control
same,T/C,[6],92 % of control
COc1ccc(C(C)c2cc3c(cc2OC)OCO3)c(C)c1 (stereo not given),T/C,[8],116 % of control
same,T/C,[9],92 % of control
same,T/C,[10],119 % of control
N#Cc1c(C(=O)NN)cc(-c2cccc3ccccc23)[nH]c1=O,T/C,[14],107 % of control
same,T/C,[15],103 % of control
CCOC(=O)C(=O)N(CCCNc1c2ccccc2nc2c(OC)cccc12)CCCNc1c2ccccc2nc2c(OC)cccc12,T/C,"dose: 1.25 mg/kg/injection, schedule: Q01DX009 (ip), vehicle: water",120 % of control
same,T/C,"dose: 2.5 mg/kg/injection, schedule: Q01DX009 (ip), vehicle: water",120 % of control
same,T/C,"dose: 10.0 mg/kg/injection, schedule: Q01DX009 (ip), vehicle: water",161 % of control
CN(C)CCNC1c2ccccc2-c2ccccc21,T/C,[2],99 % of control
same,T/C,[3],98 % of control
same,T/C,[4],100 % of control
OCC1NCCC(O)C1OC1OC(CO)C(O)C(O)C1O (stereo not given),T/C,"dose: 6.88 mg/kg/injection, schedule: Q01DX005 (ip), vehicle: water",103 % of control
same,T/C,"dose: 13.75 mg/kg/injection, schedule: Q01DX005 (ip), vehicle: water",100 % of control
same,T/C,"dose: 27.5 mg/kg/injection, schedule: Q01DX005 (ip), vehicle: water",100 % of control
same,T/C,"dose: 55.0 mg/kg/injection, schedule: Q01DX005 (ip), vehicle: water",99 % of control
CN(C)C(=S)S(C)(=O)=O,T/C,"dose: 12.5 mg/kg/injection, schedule: Q01DX009 (ip), vehicle: saline",107 % of control
same,T/C,"dose: 25.0 mg/kg/injection, schedule: Q01DX009 (ip), vehicle: saline",109 % of control
same,T/C,[11],103 % of control and 107 % of control
